Values of other authors, collected in article PMC3906704 (Journal of molecular biochemistry, 2012).

Details: substitution of Gly6 in GnRH-I; ref Karten & Rivier 1986

Substance: L-Ala^6: GnRH analog with L-Ala^6 substitution (QHWSYALRPG; Gonadoliberin-1; UniProt P01148 24-33, looked up, variant G6A)
- Potency relative to native GnRH-I: 4%
